Test results as given in patent US8932997B2, “Anti-accretion agents for drilling fluids” (Lamberti SpA, priority 2008, dated 2015).

Columns and labels:
[1] = Anti-accretion test (hot roll cells with steel bars and shale chips); conditions: additive amount per 350 ml test fluid as in fluid description; 50 g Arne clay chips; rolled 30 minutes at room temperature
[2] = tested on: Skeletonema costatum; assay: Marine algal growth inhibition test (ISO/DP 10253); assay type: cell-based; conditions: concentrations 0.1 to 100.0 mg/l seawater
Protocol: The test was carried out according the ISO protocol ISO/DP 10253—Water quality—Marine algal growth inhibition test with Skeletonema costatum and Phaeodactylum tricornutum.
A culture of the marine algae Skeletonema costatum was exposed to a series of test concentrations of Additive 1 In addition to a control test, concentrations ranging from 0.1 to 100.0 mg/I seawater were tested. The test lasted for 72 hours, and EC50 (72 hours) was calculated to be higher than 10.0 mg/litre.

| Compound | accretion % (wt % of shale accreted on metal surface) [1] | EC50 (72 hours) algal growth inhibition [2] |
| --- | --- | --- |
| [Cl-].[K+] [KCl, potassium chloride, reference compound] | >70% |  |
| triethanolamine trioleate [Additive 1] | 10% | higher than 10.0 mg/litre |
